Experimental data as given in ChEMBL document CHEMBL1201862, “PubChem BioAssay data set” (2004).
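In this assay, cells in 96-well plates receive the compound at five concentrations for 48 hours. Endpoints are linearly interpolated between the surrounding concentrations. At the GI50, growth is halved.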 Activity calls are given as the source filed them. Cut-off read from the data, not from the text of the source: active = GI50 up to about 1.1 µM and inactive = higher.

Key:
Assay in all cases: DTP human tumour cell line panel, 48 h
OVCAR-4 = test system: OVCAR-4
SK-MEL-28 = test system: SK-MEL-28
U-251 = test system: U-251
SW-620 = test system: SW-620
SF-295 = test system: SF-295
UACC-62 = test system: UACC-62
SK-OV-3 = test system: SK-OV-3
HT-29 = test system: HT-29
COLO 205 = test system: COLO 205
OVCAR-3 = test system: OVCAR-3
CCRF-CEM = test system: CCRF-CEM
UO-31 = test system: UO-31
SN12C = test system: SN12C
UACC-257 = test system: UACC-257
SNB-19 = test system: SNB-19
NCI-H460 = test system: NCI-H460
CAKI-1 = test system: CAKI-1
SK-MEL-5 = test system: SK-MEL-5
SNB-75 = test system: SNB-75
IGROV-1 = test system: IGROV-1

Measured: GI50

Cc1nc(O)nc(O)c1/C=C/C(=O)O
inactive: OVCAR-4 > 1000 µM | SK-MEL-28 > 1000 µM | U-251 > 1000 µM | SW-620 > 1000 µM | SF-295 > 1000 µM | UACC-62 > 1000 µM | SK-OV-3 > 1000 µM | HT-29 > 1000 µM | COLO 205 > 1000 µM | OVCAR-3 > 1000 µM | CCRF-CEM > 1000 µM | UO-31 > 1000 µM | SN12C > 1000 µM | UACC-257 > 1000 µM | SNB-19 > 1000 µM | NCI-H460 > 1000 µM | CAKI-1 > 1000 µM | SK-MEL-5 > 1000 µM | SNB-75 > 1000 µM | IGROV-1 > 1000 µM

CCN1c2ccccc2-n2c(C)nnc2-c2c(-c3ccccc3)n[nH]c21
inactive: OVCAR-4 22 µM | SK-MEL-28 30.5 µM | U-251 18.5 µM | SW-620 36.2 µM | SF-295 31 µM | UACC-62 22.4 µM | SK-OV-3 57.9 µM | HT-29 24.5 µM | COLO 205 32.4 µM | OVCAR-3 36.4 µM | CCRF-CEM 17.5 µM | UO-31 44.8 µM | SN12C 24.4 µM | UACC-257 > 100 µM | SNB-19 42.9 µM | NCI-H460 27.8 µM | CAKI-1 > 10 µM | SK-MEL-5 14.5 µM | SNB-75 67 µM | IGROV-1 21.4 µM

Cc1cc(NC(=S)Nc2ccccc2)c(NC(=S)Nc2ccccc2)cc1C
inactive: OVCAR-4 32.3 µM | SK-MEL-28 38.8 µM | U-251 15.7 µM | SW-620 11.6 µM | SF-295 11.4 µM | UACC-62 18.2 µM | SK-OV-3 35 µM | HT-29 36.6 µM | COLO 205 26.1 µM | OVCAR-3 21.1 µM | CCRF-CEM 13.5 µM | UO-31 21.6 µM | SN12C 40.4 µM | UACC-257 44 µM | SNB-19 47.9 µM | NCI-H460 12.9 µM | CAKI-1 9.91 µM | SK-MEL-5 11.4 µM | SNB-75 27 µM | IGROV-1 22.8 µM

O=C(N/C(=C\c1ccccc1[N+](=O)[O-])c1nc2ccccc2[nH]1)c1ccccc1
inactive: OVCAR-4 > 100 µM | SK-MEL-28 > 100 µM | U-251 > 100 µM | SW-620 58.5 µM | SF-295 55.8 µM | UACC-62 62.4 µM | SK-OV-3 > 100 µM | HT-29 > 100 µM | COLO 205 > 100 µM | OVCAR-3 68.1 µM | CCRF-CEM 57.9 µM | UO-31 45.8 µM | SN12C > 100 µM | SNB-19 > 100 µM | CAKI-1 > 100 µM | SK-MEL-5 72.8 µM | IGROV-1 > 100 µM

CCOc1ncn(-c2ccc(NC(=S)Nc3ncccn3)cc2)n1
inactive: OVCAR-4 21.8 µM | SK-MEL-28 26.1 µM | U-251 > 100 µM | SW-620 54.6 µM | SF-295 97.5 µM | UACC-62 28.8 µM | SK-OV-3 > 100 µM | HT-29 13 µM | COLO 205 29.5 µM | OVCAR-3 37.7 µM | CCRF-CEM 20 µM | UO-31 18.6 µM | SN12C 51.1 µM | UACC-257 28.9 µM | SNB-19 54 µM | NCI-H460 41.4 µM | SK-MEL-5 18.2 µM | SNB-75 12.1 µM | IGROV-1 26.5 µM

CC(=O)OC1COC(N2c3ccccc3[C@@H]3CCc4c([nH]c5ccccc45)[C@@H]32)C(OC(C)=O)C1OC(C)=O.CC(=O)OC1COC(N2c3ccccc3[C@H]3CCc4c([nH]c5ccccc45)[C@H]32)C(OC(C)=O)C1OC(C)=O (stereo not given in full)
inactive: OVCAR-4 71.8 µM | SK-MEL-28 > 100 µM | U-251 80.7 µM | SW-620 > 100 µM | SF-295 21.6 µM | UACC-62 60.5 µM | SK-OV-3 44.9 µM | HT-29 62.2 µM | COLO 205 19.2 µM | OVCAR-3 26.1 µM | CCRF-CEM 26.5 µM | UO-31 9.79 µM | SN12C 59.3 µM | UACC-257 72.1 µM | SNB-19 > 100 µM | NCI-H460 40.6 µM | CAKI-1 27.7 µM | SK-MEL-5 29.3 µM | SNB-75 11.4 µM | IGROV-1 2.76 µM

CC1=Nc2c(N)nc(N)nc2N(C)C1
inactive: SK-MEL-28 > 100 µM | U-251 > 100 µM | SW-620 > 100 µM | SF-295 > 100 µM | UACC-62 > 100 µM | SK-OV-3 > 100 µM | COLO 205 > 100 µM | OVCAR-3 > 100 µM | CCRF-CEM > 100 µM | UO-31 74.3 µM | SN12C > 100 µM | UACC-257 > 100 µM | SNB-19 > 100 µM | NCI-H460 > 100 µM | CAKI-1 > 100 µM | SK-MEL-5 > 100 µM | SNB-75 > 100 µM | IGROV-1 > 100 µM

CC(Sc1ccccc1)C(CO)(CO)[N+](=O)[O-] (stereo not given)
inactive: OVCAR-4 17.8 µM | U-251 13.3 µM | SW-620 14.4 µM | SF-295 14.7 µM | UACC-62 15.8 µM | SK-OV-3 22.2 µM | HT-29 16.3 µM | OVCAR-3 15.2 µM | CCRF-CEM 1.85 µM | UO-31 10.6 µM | SN12C 16.8 µM | UACC-257 14 µM | SNB-19 21.4 µM | NCI-H460 22.8 µM | CAKI-1 17.9 µM | SK-MEL-5 12.7 µM | SNB-75 20.5 µM | IGROV-1 15.6 µM

CCC1C(C#N)=C(O)NC(O)=C1C#N
inactive: OVCAR-4 > 100 µM | SK-MEL-28 > 100 µM | U-251 > 100 µM | SW-620 > 100 µM | SF-295 > 100 µM | UACC-62 > 100 µM | SK-OV-3 > 100 µM | HT-29 > 100 µM | COLO 205 > 100 µM | OVCAR-3 > 100 µM | UO-31 > 100 µM | SN12C > 100 µM | UACC-257 > 100 µM | SNB-19 > 100 µM | NCI-H460 > 100 µM | CAKI-1 > 100 µM | SK-MEL-5 > 100 µM | SNB-75 > 100 µM | IGROV-1 > 100 µM

CCP(=O)(CC)C(Cl)(Cl)C(O)C(Cl)(Cl)Cl (stereo not given)
inactive: OVCAR-4 > 100 µM | SK-MEL-28 > 100 µM | U-251 > 100 µM | SW-620 > 100 µM | SF-295 > 100 µM | SK-OV-3 > 100 µM | HT-29 > 100 µM | COLO 205 > 100 µM | OVCAR-3 > 100 µM | CCRF-CEM > 100 µM | UO-31 > 100 µM | SN12C > 100 µM | UACC-257 > 100 µM | SNB-19 > 100 µM | NCI-H460 > 100 µM | CAKI-1 > 100 µM | SK-MEL-5 > 100 µM | SNB-75 > 100 µM | IGROV-1 > 100 µM

O=C(CCN1CCOCC1)/C(=C/c1ccccc1)c1ccccc1
inactive: OVCAR-4 10.3 µM | SK-MEL-28 5.37 µM | U-251 3.99 µM | SW-620 2.47 µM | SF-295 12.3 µM | UACC-62 2.49 µM | SK-OV-3 19.3 µM | HT-29 4.49 µM | COLO 205 3.89 µM | OVCAR-3 3.76 µM | CCRF-CEM 1.98 µM | UO-31 14 µM | SN12C 4.15 µM | UACC-257 2.74 µM | SNB-19 11 µM | NCI-H460 8.95 µM | CAKI-1 5.14 µM | SK-MEL-5 8.45 µM | SNB-75 9.14 µM | IGROV-1 9.93 µM

C=C1C(=O)OC2C[C@@]3(C)CCCC(=C)C3CC12 (stereo not given in full)
inactive: OVCAR-4 13.4 µM | SK-MEL-28 11.7 µM | U-251 10.1 µM | SW-620 3.92 µM | SF-295 11.4 µM | UACC-62 5.56 µM | SK-OV-3 19.5 µM | HT-29 7.14 µM | COLO 205 2.93 µM | OVCAR-3 10.4 µM | CCRF-CEM > 100 µM | UO-31 4.98 µM | SN12C 4.44 µM | UACC-257 10.3 µM | SNB-19 11.2 µM | NCI-H460 4.68 µM | CAKI-1 6.62 µM | SK-MEL-5 7.64 µM | SNB-75 7.23 µM | IGROV-1 19 µM

CC(=O)c1c(-c2ccco2)c(C#N)c(=S)n(C2OC(CO)C(O)C(O)C2O)c1-c1ccccc1 (stereo not given)
inactive: OVCAR-4 73.3 µM | SK-MEL-28 38.9 µM | U-251 28.4 µM | SW-620 76 µM | SF-295 52.7 µM | UACC-62 32 µM | SK-OV-3 > 100 µM | HT-29 > 100 µM | COLO 205 > 100 µM | OVCAR-3 > 100 µM | CCRF-CEM 43.3 µM | UO-31 51.2 µM | SN12C 54.5 µM | UACC-257 > 100 µM | SNB-19 22.4 µM | NCI-H460 > 100 µM | CAKI-1 > 100 µM | SK-MEL-5 35.7 µM | SNB-75 69.7 µM | IGROV-1 > 100 µM
